Experimental data from BindingDB's records for doi:10.1021/acs.jmedchem.1c01426 (University of The Pacific, 2021).

Biological target: Transthyretin (Homo sapiens) (UniProt P02766)
Experiment: Induction of stability of human recombinant interleukin 2 assessed as binding affinity of drug-conjugated rIL2 to human TTR in PBS buffer at pH 7.4 measured after 20 mins fluorescence polarization assay

- Kd: 851 nM
Compound: Cc1n[nH]c(C)c1CCCOc1cc(OCCCc2cn(CCOCCOCCOCCOCCNC(=O)C3CCC(CN4C(=O)C=CC4=O)CC3)nn2)cc(C(=O)O)c1 (stereo unspecified)
